Test results from PubChem BioAssay (NCI).
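Interpolation was linear, between the two tested concentrations surrounding the appropriate level; five concentrations were tested over 48 hours in 96-well plates. GI50 marks 50% less growth. At the TGI there is no net growth.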

Key:
Experiment in all cases: DTP human tumour cell line panel, 48 h
[1] = system: SNB-75 CNS
[2] = system: SF-295 CNS
[3] = system: HL-60(TB) leukemia
[4] = system: NCI-H226 lung
[5] = system: OVCAR-5 ovarian
[6] = system: NCI-H522 lung
[7] = system: HCC-2998 colon
[8] = system: SF-268 CNS
[9] = system: UACC-257 melanoma
[10] = system: A549 NSCLC

| SMILES | GI50 [1] [µM] | TGI [1] [µM] | GI50 [2] [µM] | TGI [2] [µM] | GI50 [3] [µM] | TGI [3] [µM] | GI50 [4] [µM] | TGI [4] [µM] | GI50 [5] [µM] | TGI [5] [µM] | GI50 [6] [µM] | TGI [6] [µM] | GI50 [7] [µM] | TGI [7] [µM] | GI50 [8] [µM] | GI50 [9] [µM] | TGI [9] [µM] | GI50 [10] [µM] | TGI [10] [µM] | TGI [8] [µM] |
| --- | --- | --- | --- | --- | --- | --- | --- | --- | --- | --- | --- | --- | --- | --- | --- | --- | --- | --- | --- | --- |
| COc1cc2c3c(n(CCNCCCNCCn4c5c(c6cc(OC)c(OC)cc6c4=O)C(=O)c4ccccc4-5)c(=O)c2cc1OC)-c1ccccc1C3=O | 1.6 | 6.81 | 0.105 | 2.11 | < 0.0154 | 0.334 | 0.3 | 3.04 | 0.732 | 7.56 | < 0.0423 | 6.66 | 0.0685 | 0.978 | 0.0648 | 73.3 | > 100 | 0.187 | 24.2 | – |
| Cc1ccc2c3c(c(=O)[nH]c2c1)C1(C(C#N)=C(N)O3)c2cc(Br)ccc2-c2ccc(Br)cc21 | 1.51 | 3.16 | 1.82 | 3.71 | 18.8 | 66.7 | 1.9 | 4.6 | 2.02 | 4.75 | 1.61 | 4.32 | 2.15 | 4.74 | 2.03 | 2.32 | 5.24 | 2.01 | 4.52 | 5.08 |
| CCOc1ccc2c(c1)[n+]([O-])c(-c1nc3ccccc3s1)c(N)[n+]2[O-] | – | > 100 | – | > 100 | – | > 100 | – | > 100 | – | > 100 | – | 63.3 | – | > 100 | – | – | > 100 | – | > 100 | > 100 |
| Cn1c2ccccc2c2c3[nH]c(=O)[nH]c(=O)c3c3c4ccccc4n(C)c3c21 | 1.49 | 3.27 | 10.5 | 27.8 | > 100 | > 100 | 1.66 | 5.37 | 3 | > 100 | 1.9 | 12.8 | 8.25 | > 100 | 3.12 | > 100 | > 100 | 2.86 | > 100 | 15.6 |
